pIC50: −log10 of the molar value.
These compounds were tested against T1, SARM1 (50-724) (Homo sapiens, UniProt Q6SZW1) (assay: SARM1 (50-724) enzymatic assay (LC-MS/MS)). Conditions: Purified SARM1 (50-724) 2 nM, NMN as activator, NAD+ as substrate, 1 h at room temperature, read-out: IC50 (SARM1 inhibitory activity).
T1 construct: Purified SARM1 (50-724) with a final concentration of 2 nM was pre-incubated with a test compound
T1 sequence (Q6SZW1 50-724): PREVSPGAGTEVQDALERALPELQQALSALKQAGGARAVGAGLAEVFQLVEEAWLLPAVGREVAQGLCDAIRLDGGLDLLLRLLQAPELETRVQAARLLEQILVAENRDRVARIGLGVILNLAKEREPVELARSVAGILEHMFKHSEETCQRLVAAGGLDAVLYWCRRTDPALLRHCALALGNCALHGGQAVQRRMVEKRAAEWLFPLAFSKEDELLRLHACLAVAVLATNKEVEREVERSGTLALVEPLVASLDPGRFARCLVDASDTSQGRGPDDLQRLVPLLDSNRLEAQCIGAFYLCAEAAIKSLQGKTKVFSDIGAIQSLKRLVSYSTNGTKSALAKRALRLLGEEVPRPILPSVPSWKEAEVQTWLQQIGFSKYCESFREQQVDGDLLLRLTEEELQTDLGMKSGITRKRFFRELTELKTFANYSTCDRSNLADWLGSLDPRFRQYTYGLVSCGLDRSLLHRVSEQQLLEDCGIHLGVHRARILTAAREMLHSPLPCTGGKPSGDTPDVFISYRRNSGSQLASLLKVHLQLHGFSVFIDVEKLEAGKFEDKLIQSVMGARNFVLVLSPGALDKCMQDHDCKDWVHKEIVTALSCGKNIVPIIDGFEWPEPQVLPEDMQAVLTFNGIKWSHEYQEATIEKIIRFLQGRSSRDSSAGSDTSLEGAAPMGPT
Assay type: biochemical
Outline: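 Human SARM1 (50-724), 2 nM, pre-incubated 15 min at room temperature with compound in Dulbecco's PBS. Reaction started with 200 µM NMN (activator) plus […] NAD^+ substrate, run 1 h at room temperature, quenched with 70% acetonitrile. Turnover quantified by LC-MS/MS; IC50 reported.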
Work on Cn1ncc(Cl)c1-c1ccnnc1-c1nc2cc(C(F)(F)F)ccc2[nH]1 [Compound 399, 2-(4-(4-chloro-1-methyl-1H-pyrazol-5-yl)pyridazin-3-yl)-5-(trifluoromethyl)-1H-benzo[d]imidazole] yielded a pIC50 of at least 7.00.
Cc1cnn(-c2cc(F)c3[nH]c(-c4nncn4-c4cnccc4C(F)(F)F)nc3c2)c1 [Compound 400, 7-fluoro-5-(4-methyl-1H-pyrazol-1-yl)-2-(4-(4-(trifluoromethyl)pyridin-3-yl)-4H-1,2,4-triazol-3-yl)-1H-benzo[d]imidazole] was tested, and the pIC50 was at least 7.00.
Cc1ccn(-c2cc(F)c3[nH]c(-c4nncn4-c4cnccc4C(F)(F)F)nc3c2)n1 [Compound 401, 7-fluoro-5-(3-methyl-1H-pyrazol-1-yl)-2-(4-(4-(trifluoromethyl)pyridin-3-yl)-4H-1,2,4-triazol-3-yl)-1H-benzo[d]imidazole] was tested, and the pIC50 was at least 7.00.
Work on COc1cc(-c2nc3cc(C(F)(F)F)ccc3[nH]2)c(-c2cccc(Cl)c2Cl)cn1 [Compound 402, 2-(5-(2,3-dichlorophenyl)-2-methoxypyridin-4-yl)-5-(trifluoromethyl)-1H-benzo[d]imidazole] yielded a pIC50 of 6.30 to 7.00.
[2H]C([2H])([2H])N(c1cc(F)c2[nH]c(-c3nncn3-c3cnccc3C(F)(F)F)nc2c1)C([2H])([2H])[2H] [Compound 403, 7-fluoro-N,N-bis(methyl-d3)-2-(4-(4-(trifluoromethyl)pyridin-3-yl)-4H-1,2,4-triazol-3-yl)-1H-benzo[d]imidazol-5-amine] gave a pIC50 of at least 7.00.
Work on COc1cc(-c2ccccc2Cl)c(-c2nc3cc(C(F)(F)F)ccc3[nH]2)nn1 [Compound 405, 2-(4-(2-chlorophenyl)-6-methoxypyridazin-3-yl)-5-(trifluoromethyl)-1H-benzo[d]imidazole] yielded a pIC50 of 6.30 to 7.00.
In the case of Oc1cc(-c2ccccc2Cl)c(-c2nc3cc(C(F)(F)F)ccc3[nH]2)nn1 [Compound 406, 5-(2-chlorophenyl)-6-(5-(trifluoromethyl)-1H-benzo[d]imidazol-2-yl)pyridazin-3-ol], the pIC50 was 6.30 to 7.00.
FC(F)(F)c1ccc2[nH]c(-c3nnc(Cl)cc3-c3ccccc3Cl)nc2c1 [Compound 407, 2-(6-chloro-4-(2-chlorophenyl)pyridazin-3-yl)-5-(trifluoromethyl)-1H-benzo[d]imidazole] was tested, and the pIC50 was at least 7.00.
Cc1cnc(-c2cc(F)c3[nH]c(-c4nncn4-c4cnccc4C(F)(F)F)nc3c2)s1 [Compound 409, 2-[7-fluoro-2-[4-[4-(trifluoromethyl)-3-pyridyl]-1,2,4-triazol-3-yl]-1H-benzimidazol-5-yl]-5-methyl-thiazole] showed a pIC50 of at least 7.00.
O=c1cc(-n2cnnc2-c2cc3cc(C(F)(F)F)cc(F)c3[nH]2)c(OC(F)(F)F)cn1CCO [Compound 410, 4-(3-(7-fluoro-5-(trifluoromethyl)-1H-indol-2-yl)-4H-1,2,4-triazol-4-yl)-1-(2-hydroxyethyl)-5-(trifluoromethoxy)pyridin-2(1H)-one] showed a pIC50 of at least 7.00.
Work on OCCOc1cc(-n2cnnc2-c2cc3cc(C(F)(F)F)cc(F)c3[nH]2)c(OC(F)(F)F)cn1 [Compound 411, 2-((4-(3-(7-fluoro-5-(trifluoromethyl)-1H-indol-2-yl)-4H-1,2,4-triazol-4-yl)-5-(trifluoromethoxy)pyridin-2-yl)oxy)ethanol] yielded a pIC50 of at least 7.00.
Fc1cc(C2CC23COC3)cc2nc(-c3nncn3-c3cnccc3C(F)(F)F)[nH]c12 (centres unmarked) [Compound 413, 7-fluoro-5-(5-oxaspiro[2.3]hexan-2-yl)-2-[4-[4-(trifluoromethyl)-3-pyridyl]-1,2,4-triazol-3-yl]-1H-benzimidazole] was tested, and the pIC50 was at least 7.00.
Work on Fc1cc(C2CC23CCOC3)cc2nc(-c3nncn3-c3cnccc3C(F)(F)F)[nH]c12 (centres unmarked) [Compound 414, 7-fluoro-5-(5-oxaspiro[2.4]heptan-2-yl)-2-[4-[4-(trifluoromethyl)-3-pyridyl]-1,2,4-triazol-3-yl]-1H-benzimidazole] yielded a pIC50 of at least 7.00.
Compound FC(F)(F)c1ccc2[nH]c(-c3nncn3-c3cncnc3C(F)(F)F)nc2c1 [Compound 415, 5-(trifluoromethyl)-2-(4-(4-(trifluoromethyl)pyrimidin-5-yl)-4H-1,2,4-triazol-3-yl)-1H-benzo[d]imidazole] has a pIC50 of at least 7.00.
In the case of OCC1CC1c1cc(F)c2[nH]c(-c3nncn3-c3cnccc3C(F)(F)F)nc2c1 (centres unmarked) [Compound 416, (2-(7-fluoro-2-(4-(4-(trifluoromethyl)pyridin-3-yl)-4H-1,2,4-triazol-3-yl)-1H-benzo[d]imidazol-5-yl)cyclopropyl)methanol], the pIC50 was at least 7.00.
Work on CN(c1cc(F)c2[nH]c(-c3nncn3-c3cnccc3C(F)(F)F)nc2c1)c1nccs1 [Compound 417, N-(7-fluoro-2-(4-(4-(trifluoromethyl)pyridin-3-yl)-4H-1,2,4-triazol-3-yl)-1H-benzo[d]imidazol-5-yl)-N-methylthiazol-2-amine] yielded a pIC50 of at least 7.00.
CC(C)(O)c1cc(F)c2[nH]c(-c3nnccc3-c3cnccc3C(F)(F)F)nc2c1 [Compound 418, 2-(4-fluoro-2-(4-(4-(trifluoromethyl)pyridin-3-yl)pyridazin-3-yl)-1H-benzo[d]imidazol-6-yl)propan-2-ol] gave a pIC50 of at least 7.00.
In the case of Fc1cccc(-n2c(CCc3nccs3)nnc2-c2nc3cc(C(F)(F)F)ccc3[nH]2)c1Cl [Compound 419, 2-(2-(4-(2-chloro-3-fluorophenyl)-5-(5-(trifluoromethyl)-1H-benzo[d]imidazol-2-yl)-4H-1,2,4-triazol-3-yl)ethyl)thiazole], the pIC50 was 6.30 to 7.00.
For Fc1cc(C2CC2)cc2nc(-c3nnccc3-c3cnccc3C(F)(F)F)[nH]c12 [Compound 420, 6-cyclopropyl-4-fluoro-2-(4-(4-(trifluoromethyl)pyridin-3-yl)pyridazin-3-yl)-1H-benzo[d]imidazole], the pIC50 was at least 7.00.
In the case of CC1(O)CC(Cc2nnc(-c3nc4cc(C(F)(F)F)ccc4[nH]3)n2-c2cccc(F)c2Cl)C1 (centres unmarked) [Compound 421, 3-((4-(2-chloro-3-fluorophenyl)-5-(5-(trifluoromethyl)-1H-benzo[d]imidazol-2-yl)-4H-1,2,4-triazol-3-yl)methyl)-1-methylcyclobutan-1-ol], the pIC50 was at least 7.00.
Fc1cc(C2(c3nccs3)CC2)cc2nc(-c3nncn3-c3cnccc3C(F)(F)F)[nH]c12 [Compound 422, 2-[1-[7-fluoro-2-[4-[4-(trifluoromethyl)-3-pyridyl]-1,2,4-triazol-3-yl]-1H-benzimidazol-5-yl]cyclopropyl]thiazole] was tested, and the pIC50 was at least 7.00.
Work on CC1CC(c2cc(F)c3[nH]c(-c4nncn4-c4cnccc4C(F)(F)F)nc3c2)CO1 (centres unmarked) [Compound 423, 7-fluoro-5-(5-methyltetrahydrofuran-3-yl)-2-[4-[4-(trifluoromethyl)-3-pyridyl]-1,2,4-triazol-3-yl]-1H-benzimidazole] yielded a pIC50 of at least 7.00.
O=S1(c2cc(F)c3[nH]c(-c4nncn4-c4cnccc4C(F)(F)F)nc3c2)=NCCC1 (centres unmarked) [Compound 424, 1-[7-fluoro-2-[4-[4-(trifluoromethyl)-3-pyridyl]-1,2,4-triazol-3-yl]-1H-benzimidazol-5-yl]-4,5-dihydro-3H-isothiazole 1-oxide] was tested, and the pIC50 was under 6.00.
Compound N#CC1(c2c(-c3nncn3-c3cnccc3C(F)(F)F)[nH]c3ccc(C(F)(F)F)cc23)CC1 [Compound 425, 1-[5-(trifluoromethyl)-2-[4-[4-(trifluoromethyl)-3-pyridyl]-1,2,4-triazol-3-yl]-1H-indol-3-yl]cyclopropanecarbonitrile] has a pIC50 of at least 7.00.
Compound FC(F)(F)c1ccc2[nH]c(-c3nncn3-c3cnccc3C(F)(F)F)c(-c3cccnn3)c2c1 [Compound 426, 3-pyridazin-3-yl-5-(trifluoromethyl)-2-[4-[4-(trifluoromethyl)-3-pyridyl]-1,2,4-triazol-3-yl]-1H-indole] has a pIC50 of at least 7.00.
With FC(F)(F)c1ccc2[nH]c(-c3nncn3-c3cnccc3C(F)(F)F)c(-c3ccnnc3)c2c1 [Compound 427, 3-pyridazin-4-yl-5-(trifluoromethyl)-2-[4-[4-(trifluoromethyl)-3-pyridyl]-1,2,4-triazol-3-yl]-1H-indole] the pIC50 was at least 7.00.
FC(F)(F)c1ccc2[nH]c(-c3nncn3-c3cnccc3C(F)(F)F)c(-c3ncccn3)c2c1 [Compound 428, 3-pyrimidin-2-yl-5-(trifluoromethyl)-2-[4-[4-(trifluoromethyl)-3-pyridyl]-1,2,4-triazol-3-yl]-1H-indole] showed a pIC50 of at least 7.00.
FC(F)(F)c1ccc2[nH]c(-c3nncn3-c3nnccc3C(F)(F)F)nc2c1 [Compound 429, 5-(trifluoromethyl)-2-(4-(4-(trifluoromethyl)pyridazin-3-yl)-4H-1,2,4-triazol-3-yl)-1H-benzo[d]imidazole] showed a pIC50 of at least 7.00.
CC(c1cc(F)c2[nH]c(-c3nncn3-c3cnccc3C(F)(F)F)nc2c1)c1cc[nH]n1 (centres unmarked) [Compound 430, 5-(1-(1H-pyrazol-5-yl)ethyl)-7-fluoro-2-(4-(4-(trifluoromethyl)pyridin-3-yl)-4H-1,2,4-triazol-3-yl)-1H-benzo[d]imidazole] gave a pIC50 of at least 7.00.
